Laboratory results published in ChEMBL document CHEMBL1275606, “Novel chromosome-encoded CTX-M-78 beta-lactamase from a Kluyvera georgiana clinical isolate as a putative origin of CTX-M-25 subgroup” (2010).
Converted amounts (≈) assume the structure as drawn.

Experiments:
Format in all cases: functional
Escherichia coli [1] = assay: Antimicrobial activity against Escherichia coli TOP10F' transformant harboring beta-lactamase CTX-M-78 by […]
Kluyvera georgiana [2] = assay: Antimicrobial activity against Kluyvera georgiana 14751 expressing beta-lactamase CTX-M-78 obtained from bloodstream of patient by […]
Escherichia coli [3] = assay: Antimicrobial activity against Escherichia coli TOP10F' by […]
Kluyvera georgiana [4] = assay: Antimicrobial activity against Kluyvera georgiana 14751 expressing beta-lactamase CTX-M-78 obtained from bloodstream of patient by […] in presence of beta-lactamase inhibitor clavulanic acid

Row | Compound | MIC (Escherichia coli [1]) | MIC (Kluyvera georgiana [2]) | MIC (Escherichia coli [3]) | MIC (Kluyvera georgiana [4])
1 | CN(C)[C@@H]1C(O)=C(C(N)=O)C(=O)[C@@]2(O)C(O)=C3C(=O)c4c(O)cccc4[C@@](C)(O)[C@H]3C[C@@H]12 [TETRACYCLINE] | 256 µg/mL (≈ 576 µM) | ≤ 0.5 µg/mL |  | 
2 | CO/N=C(\C(=O)N[C@@H]1C(=O)N2C(C(=O)[O-])=C(C[N+]3(C)CCCC3)CS[C@H]12)c1csc(N)n1 [CEFEPIME] | 0.5 µg/mL (≈ 1.04 µM) | 0.032 µg/mL (≈ 0.0666 µM) | 0.016 µg/mL (≈ 0.0333 µM) | 
3 | CO[C@@]1(NC(=O)Cc2cccs2)C(=O)N2C(C(=O)O)=C(COC(N)=O)CS[C@@H]21 [CEFOXITIN] | 2 µg/mL (≈ 4.68 µM) | 1 µg/mL (≈ 2.34 µM) | 2 µg/mL (≈ 4.68 µM) | 
4 | NC[C@H]1O[C@H](O[C@H]2[C@H](O)[C@@H](O[C@H]3O[C@H](CO)[C@@H](O)[C@H](N)[C@H]3O)[C@H](N)C[C@@H]2N)[C@H](O)[C@@H](O)[C@@H]1O [KANAMYCIN] | 256 µg/mL (≈ 528 µM) | 16 µg/mL (≈ 33 µM) | 1 µg/mL (≈ 2.06 µM) | 
5 | GENTAMICIN | < 0.5 µg/mL | 64 µg/mL |  | 
6 | CCn1cc(C(=O)O)c(=O)c2ccc(C)nc21 [NALIDIXIC ACID] | 2 µg/mL (≈ 8.61 µM) | 128 µg/mL (≈ 551 µM) |  | 
7 | C[C@H]1[C@H](NC(=O)/C(=N\OC(C)(C)C(=O)O)c2csc(N)n2)C(=O)N1S(=O)(=O)O [AZTREONAM] | 0.5 µg/mL (≈ 1.15 µM) | ≤ 0.016 µg/mL |  | 
8 | CO/N=C(\C(=O)N[C@@H]1C(=O)N2C(C(=O)O)=C(COC(C)=O)CS[C@H]12)c1csc(N)n1 [CEFOTAXIME] | 1 µg/mL (≈ 2.2 µM) | 0.032 µg/mL (≈ 0.0703 µM) | ≤ 0.016 µg/mL | 
9 | CC(=O)OCC1=C(C(=O)O)N2C(=O)[C@@H](NC(=O)Cc3cccs3)[C@H]2SC1 [CEPHALOTHIN] | 256 µg/mL (≈ 646 µM) | 8 µg/mL (≈ 20.2 µM) | 2 µg/mL (≈ 5.04 µM) | 
10 | CC1(C)S[C@@H]2[C@H](NC(=O)[C@H](N)c3ccccc3)C(=O)N2[C@H]1C(=O)O [AMPICILLIN] | 256 µg/mL (≈ 733 µM) | 256 µg/mL (≈ 733 µM) |  | 4 µg/mL
11 | CC(C)(O/N=C(\C(=O)N[C@@H]1C(=O)N2C(C(=O)[O-])=C(C[n+]3ccccc3)CS[C@H]12)c1csc(N)n1)C(=O)O [CEFTAZIDIME] | 0.25 µg/mL (≈ 0.457 µM) | 0.063 µg/mL (≈ 0.115 µM) | 0.125 µg/mL (≈ 0.229 µM) | 
